Test system: NOMO1
Assay: cell viability relative to DMSO control; higher = less cytotoxic
Settings: 48 h
Outline: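 NOMO1 or SEM cells were plated at 500 cells/well and P12-Ichikawa cells at 1000 cells/well in 1536-well plates (5 μl), after each leukemia line had been adapted for at least four passages in each medium. Pin dosing delivered library compounds in DMSO at 11 threefold concentrations, 47 μM to 0.79 nM. CellTiter-Glo One luminescence was read after 48 h at 37°C. Viability is reported as a per-plate percentage of DMSO wells, with cell-free wells as background.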

[1] = HPLM + 10% dialyzed FBS, 0.000781 µM
[2] = HPLM + 10% dialyzed FBS, 0.00234 µM
[3] = HPLM + 10% dialyzed FBS, 0.00702 µM
[4] = HPLM + 10% dialyzed FBS, 0.0211 µM
[5] = HPLM + 10% dialyzed FBS, 0.0632 µM
[6] = HPLM + 10% dialyzed FBS, 0.19 µM
[7] = HPLM + 10% dialyzed FBS, 0.569 µM
[8] = HPLM + 10% dialyzed FBS, 1.71 µM
[9] = HPLM + 10% dialyzed FBS, 5.12 µM
[10] = HPLM + 10% dialyzed FBS, 15.4 µM
[11] = HPLM + 10% dialyzed FBS, 46.1 µM
[12] = RPMI 5 mM glucose + 10% FBS, 0.000781 µM
[13] = RPMI 5 mM glucose + 10% FBS, 0.00234 µM
[14] = RPMI 5 mM glucose + 10% FBS, 0.00702 µM
[15] = RPMI 5 mM glucose + 10% FBS, 0.0211 µM
[16] = RPMI 5 mM glucose + 10% FBS, 0.0632 µM
[17] = RPMI 5 mM glucose + 10% FBS, 0.19 µM
[18] = RPMI 5 mM glucose + 10% FBS, 0.569 µM
[19] = RPMI 5 mM glucose + 10% FBS, 1.71 µM
[20] = RPMI 5 mM glucose + 10% FBS, 5.12 µM
[21] = RPMI 5 mM glucose + 10% FBS, 15.4 µM
[22] = RPMI 5 mM glucose + 10% FBS, 46.1 µM
[23] = RPMI 5 mM glucose + 10% dialyzed FBS, 0.000781 µM
[24] = RPMI 5 mM glucose + 10% dialyzed FBS, 0.00234 µM
[25] = RPMI 5 mM glucose + 10% dialyzed FBS, 0.00702 µM
[26] = RPMI 5 mM glucose + 10% dialyzed FBS, 0.0211 µM
[27] = RPMI 5 mM glucose + 10% dialyzed FBS, 0.0632 µM
[28] = RPMI 5 mM glucose + 10% dialyzed FBS, 0.19 µM
[29] = RPMI 5 mM glucose + 10% dialyzed FBS, 0.569 µM
[30] = RPMI 5 mM glucose + 10% dialyzed FBS, 1.71 µM
[31] = RPMI 5 mM glucose + 10% dialyzed FBS, 5.12 µM
[32] = RPMI 5 mM glucose + 10% dialyzed FBS, 15.4 µM
[33] = RPMI 5 mM glucose + 10% dialyzed FBS, 46.1 µM

SMILES	cell viability [1]	cell viability [2]	cell viability [3]	cell viability [4]	cell viability [5]	cell viability [6]	cell viability [7]	cell viability [8]	cell viability [9]	cell viability [10]	cell viability [11]	cell viability [12]	cell viability [13]	cell viability [14]	cell viability [15]	cell viability [16]	cell viability [17]	cell viability [18]	cell viability [19]	cell viability [20]	cell viability [21]	cell viability [22]	cell viability [23]	cell viability [24]	cell viability [25]	cell viability [26]	cell viability [27]	cell viability [28]	cell viability [29]	cell viability [30]	cell viability [31]	cell viability [32]	cell viability [33]
COc1c(C)c2c(c(O)c1C/C=C(\C)CCC(=O)O)C(=O)OC2	116%	109%	106%	107%	116%	95.4%	115%	100%	86.7%	45.2%	32.6%	101%	107%	102%	94.4%	109%	94.9%	102%	109%	84.6%	47.5%	22.3%	98.4%	96.7%	105%	97.3%	100%	108%	84.7%	89.5%	90.4%	58%	38.3%
CC(C)c1cc(C(C)C)c(CC(=O)N[S+](=O)([O-])Oc2c(C(C)C)cccc2C(C)C)c(C(C)C)c1	103%	110%	93.9%	114%	112%	88.6%	92.2%	98.8%	100%	92.5%	88.9%	96.3%	89.8%	88.6%	82.8%	94.8%	87.8%	105%	93%	98.3%	90.5%	86.9%	95.9%	89.4%	91.4%	89.7%	87.4%	91.4%	97%	84.5%	90.8%	87.9%	65.3%
COC1=CC=C(C(=C1)OC(C)C)C/2=N/[C@@H]([C@@H](N2C(=O)N3CCNC(=O)C3)C4=CC=C(Cl)C=C4)C5=CC=C(Cl)C=C5	119%	115%	114%	120%	119%	112%	124%	105%	96.1%	29.3%	5.33%	105%	118%	106%	100%	103%	103%	104%	103%	95.9%	78.1%	7.76%	100%	102%	104%	105%	102%	114%	106%	103%	90.8%	70.3%	17.7%
COc1ccc2c(c1)[C@]13CCCCC1C(C2)N(C)CC3 (stereo not given in full)	–	–	–	–	–	–	–	–	–	–	–	104%	117%	107%	121%	118%	108%	109%	111%	121%	90.3%	101%	111%	114%	116%	119%	135%	130%	114%	132%	115%	118%	84.2%
COC1=C(OCCCN2CCOCC2)C=CC\3=C1/N=C(/NC(=O)C4=CN=C(N)N=C4)N5CC/N=C35	101%	111%	111%	89.4%	99.4%	73.2%	55.5%	59.4%	44.6%	42.2%	39.8%	83.3%	90.5%	84.4%	78.9%	83.3%	80.5%	71.9%	59.6%	52%	49.3%	46.1%	94.7%	105%	88.9%	92.7%	77.8%	63.5%	59.6%	54.1%	49.6%	49.1%	34.6%
Cc1ccnc2c1NC(=O)c1cccnc1N2C1CC1	102%	104%	98.7%	121%	112%	112%	113%	89.7%	55.3%	61.4%	35.8%	85.2%	107%	93.1%	100%	103%	118%	93.3%	84.1%	59.3%	68.1%	59.1%	94.8%	102%	110%	98.6%	113%	97.1%	110%	97.4%	52.7%	79.4%	79.4%
NC(=O)c1ccc(N(C(N)=O)c2c(F)cccc2F)nc1-c1ccc(F)cc1F	90%	103%	113%	104%	115%	115%	95.3%	114%	99.6%	94.8%	111%	80.4%	86.9%	95.4%	100%	94.3%	93.8%	95.2%	105%	101%	84.9%	88%	78.2%	92.4%	91.1%	99.1%	85.4%	91.6%	95%	87.4%	93.6%	80.4%	94.3%
CC12CC3CC(C)(C1)CC(N)(C3)C2	119%	111%	120%	98.4%	125%	139%	134%	129%	107%	89.2%	49.7%	105%	116%	133%	113%	122%	128%	134%	108%	127%	100%	58.5%	111%	105%	114%	111%	116%	132%	135%	120%	113%	102%	78%
C[C@]12CC[C@H]3[C@@H](CCC4=CC(=O)CC[C@@H]43)[C@@H]1CC[C@@H]2OC(=O)CCc1ccccc1	–	–	–	–	–	–	–	–	–	–	–	126%	115%	119%	130%	114%	113%	112%	133%	115%	128%	78%	120%	127%	115%	124%	141%	135%	144%	133%	128%	137%	68.7%
CCCCCCCCCCCCCC(=O)N[C@H](CO)[C@H](O)c1ccc([N+](=O)[O-])cc1	92.5%	98.8%	99.1%	105%	105%	90.8%	108%	49.9%	16.8%	3.54%	2.02%	91.2%	82.8%	99.6%	90.2%	98.2%	91.3%	93%	51%	21.5%	3.33%	2.43%	83.2%	95%	95.7%	90.6%	92.2%	93%	94.1%	59.4%	23.2%	4.12%	2.14%
COc1cc2c(cc1OC)CN(CCc1ccc(NC(=O)c3cc(OC)c(OC)cc3NC(=O)c3cnc4ccccc4c3)cc1)CC2	118%	121%	123%	122%	128%	122%	109%	119%	114%	95.3%	94.1%	107%	106%	123%	118%	123%	118%	127%	106%	107%	107%	96.5%	118%	122%	113%	126%	115%	126%	116%	124%	120%	102%	91.5%
O=C(CCCN1CCN(c2ccc(F)cc2)CC1)NC1c2ccccc2CSc2ccccc21 (stereo not given)	–	–	–	–	–	–	–	–	–	–	–	135%	109%	108%	125%	126%	117%	112%	117%	74%	103%	71.1%	121%	120%	125%	114%	118%	112%	113%	106%	99.9%	90.8%	58%
CN(C)CC(C)(C)CNc1nn2c(-c3ccccc3)nnc2cc1C1CCC1	113%	110%	117%	126%	113%	109%	116%	110%	91.9%	39.5%	22.4%	107%	98.4%	103%	123%	103%	110%	111%	122%	116%	87%	15.6%	91.6%	110%	103%	105%	102%	95.5%	116%	109%	100%	103%	27.7%
C=CC(=O)Nc1cc2c(Nc3ccc(F)c(Cl)c3)ncnc2cc1OCCCN1CCOCC1	111%	127%	121%	132%	114%	104%	108%	105%	76.5%	59.1%	72.7%	123%	119%	126%	124%	128%	108%	104%	110%	103%	88.2%	94.3%	116%	111%	117%	108%	120%	109%	105%	101%	80.5%	73.4%	90.4%
CC[C@@H]([C@H](C)O)n1ncn(-c2ccc(N3CCN(c4ccc(OCC5CO[C@@](Cn6cncn6)(c6ccc(F)cc6F)C5)cc4)CC3)cc2)c1=O (stereo not given in full)	109%	106%	91.5%	112%	106%	98.2%	109%	107%	82.4%	94.8%	84.9%	101%	97.3%	93.3%	97%	83.5%	91.4%	87.3%	87%	87.5%	82.3%	78.1%	95.1%	90.3%	92.6%	81.3%	93.6%	83.4%	92.1%	90.1%	90.4%	87.1%	78.2%
CCCCOc1c(C(=O)c2c(F)cc(C)cc2F)cnc2[nH]ncc12	95.9%	113%	107%	103%	103%	109%	103%	119%	89.1%	96.2%	68.9%	89.4%	98.2%	82.7%	96.7%	98.7%	94%	95.6%	93.6%	98.9%	90.3%	79.1%	97.6%	96.3%	100%	92.6%	92.7%	85.5%	83.1%	86.7%	70.6%	88.4%	84.3%
